System: Pyrenophora teres
Test: Pyrenophora teres test (barley)/shoot treatment, field experiment
Assay type: in vivo, Pyrenophora teres on barley
Conditions: shoot treatment after flag leaf emergence, 62.5 g/ha, scoring long-term effect, 41 days post-application
Protocol: Pyrenophora teres Test (Barley)/shoot Treatment, Field Experiment
To prepare a suitable preparation of active substance, a “commercially available” formulation of active substance or active substance combination is diluted with water to give the desired concentration.
The active substance preparation is applied at the application rate stated, after the flag leaf has emerged.
The evaluation is carried out at the point in time at which the disease symptoms are complete and readily recognizable. In this context, 0% means an efficacy which corresponds to that of the control, while an efficacy of 100% means that no disease is observed.
The expected efficacy in % of the untreated control was calculated using the equation
In this equation, x and y mean the efficacy—expressed in % of the untreated control—which the two products achieve when applied separately. If the actual efficacy of the active substance combination exceeds the value for the expected efficacy (E) as calculated by the above formula, then the effect is superadditive, i.e. a synergistic effect exists.

SMILES: Cn1cc(C(=O)Nc2ccc(F)cc2-c2ccc(Cl)c(Cl)c2)c(C(F)F)n1 [III-23, N-(3′,4′-dichloro-5-fluoro-1,1′-biphenyl-2-yl)-3-(difluoromethyl)-1-methyl-1H-pyrazole-4-carboxamide]
- Efficacy in % found: 40%

From US8039013B2, “Synergistic fungidical active substance combinations” (Bayer CropScience AG, priority 2004, dated 2011)
